Laboratory results taken from patent US7951810B2, “Substituted pyrrolo[2,3-d]pyrimidines as inhibitors of E1 activating enzymes” (Millennium Pharmaceuticals, Inc., priority 2005, dated 2011).

Molecular target: T1, recombinant human NAE enzyme (Homo sapiens, UniProt Q8TBC4)
T1 construct: His (N); made in house; host or cells: Sf9 insect cells (baculovirus, Bac-to-Bac)
T1 sequence (Q8TBC4 1-463): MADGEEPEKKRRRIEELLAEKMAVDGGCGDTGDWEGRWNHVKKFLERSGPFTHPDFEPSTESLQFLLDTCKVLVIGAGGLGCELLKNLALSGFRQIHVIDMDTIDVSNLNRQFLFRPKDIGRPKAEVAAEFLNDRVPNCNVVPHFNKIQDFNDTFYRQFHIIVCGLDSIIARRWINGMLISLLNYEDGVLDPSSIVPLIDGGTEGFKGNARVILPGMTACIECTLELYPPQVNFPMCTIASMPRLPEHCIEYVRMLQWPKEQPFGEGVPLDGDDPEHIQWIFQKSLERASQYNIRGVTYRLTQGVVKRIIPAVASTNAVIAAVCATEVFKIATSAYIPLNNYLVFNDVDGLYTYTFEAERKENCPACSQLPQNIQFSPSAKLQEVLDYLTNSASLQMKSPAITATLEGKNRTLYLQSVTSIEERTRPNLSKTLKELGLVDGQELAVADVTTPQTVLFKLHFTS
T1 sequence (Q13564 1-534 partner): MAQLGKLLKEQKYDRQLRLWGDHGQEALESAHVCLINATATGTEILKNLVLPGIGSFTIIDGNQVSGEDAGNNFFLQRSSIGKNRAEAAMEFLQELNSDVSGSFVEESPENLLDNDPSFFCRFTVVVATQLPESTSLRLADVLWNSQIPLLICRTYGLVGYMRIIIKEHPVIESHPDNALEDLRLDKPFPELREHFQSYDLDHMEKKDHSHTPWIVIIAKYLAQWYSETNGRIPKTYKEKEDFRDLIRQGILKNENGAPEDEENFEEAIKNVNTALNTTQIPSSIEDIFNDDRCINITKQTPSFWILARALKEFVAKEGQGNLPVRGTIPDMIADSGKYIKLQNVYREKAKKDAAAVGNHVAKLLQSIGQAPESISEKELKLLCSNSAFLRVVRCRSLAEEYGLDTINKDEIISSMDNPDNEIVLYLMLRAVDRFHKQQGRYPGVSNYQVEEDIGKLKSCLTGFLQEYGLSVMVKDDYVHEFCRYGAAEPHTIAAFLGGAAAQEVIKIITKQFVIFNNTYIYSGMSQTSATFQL
Experiment: Nedd8-Activating Enzyme (NAE) HTRF assay
Format: biochemical
Details: 20 μM ATP, 90 minutes at 24° C.
Procedure: Following manufacturer instructions, baculoviruses were generated with the Bac-to-Bac Expression System (Invitrogen) for the following proteins: untagged NAEα (APPBP1; NP_003896.1), N-terminally His-tagged NAEβ (UBE1C; NP_003959.3), untagged SAEα (SAE1; NP_005491.1), N-terminally His-tagged SAEβ (UBA2; NP_005490.1), N-terminally His-tagged murine UAE (UBE1X; NP_033483). NAEα/His-NAEβ and SAEα/His-SAEβ complexes were generated by co-infection of Sf9 cells, which were harvested after 48 hours. His-mUAE was generated by single infection of Sf9 cells and harvested after 72 hours. Expressed proteins were purified by affinity chromatography (Ni-NTA agarose, Qiagen) using standard buffers.
Ubc12 (UBE2M; NP_003960.1), Ubc9 (UBE2I; NP_003336.1), Ubc2 (UBE2A; NP_003327.2) were subcloned into pGEX (Pharmacia) and expressed as N-terminally GST tagged fusion proteins in E. coli. Expressed proteins were purified by conventional affinity chromatography using standard buffers.
Nedd8 (NP_006147), Sumo-1 (NP_003343) and Ubiquitin (with optimized codons) were subcloned into pFLAG-2 (Sigma) and expressed as N-terminally Flag tagged fusion proteins in E. coli. Expressed proteins were purified by conventional chromatography using standard buffers.
Nedd8-Activating Enzyme (NAE) HTRF Assay.
The NAE enzymatic reaction totaled 50 μL and contained 50 mM HEPES (pH 7.5), 0.05% BSA, 5 mM MgCl2, 20 μM ATP, 250 μM GSH, 0.01 μM Ubc12-GST, 0.075 μM Nedd8-Flag and 0.28 nM recombinant human NAE enzyme. The enzymatic reaction mixture, with and without compound inhibitor, was incubated at 24° C. for 90 minutes in a 384-well plate before termination with 25 μL of Stop/Detection buffer (0.1M HEPES pH 7.5, 0.05% Tween20, 20 mM EDTA, 410 mM KF, 0.53 nM Europium-Cryptate labeled monoclonal anti-FLAG M2 antibody (CisBio International) and 8.125 μg/mL PHYCOLINK goat anti-GST allophycocyanin (XL-APC) antibody (Prozyme)). After incubation for 3 hours at 24° C., quantification of the FRET was performed on the Analyst™ HT 96.384 (Molecular Devices).

[1] = threshold less than or equal to 100 nM
[2] = threshold less than or equal to 1 μM

| Compound | IC50 [1] | IC50 [2] |
| --- | --- | --- |
| NS(=O)(=O)OC[C@H]1O[C@@H](n2cnc3c(N[C@H]4CCc5ccccc54)ncnc32)C[C@@H]1O [Compound I-1, ((2R,3S,5R)-5-{6-[(1S)-2,3-dihydro-1H-inden-1-ylamino]-9H-purin-9-yl}-3-hydroxytetrahydrofuran-2-yl)methyl sulfamate] | ≤ 100 nM | ≤ 1000 nM |
| Cn1cc(CNc2ncnc3c2ncn3[C@@H]2O[C@H](CNS(N)(=O)=O)[C@@H](O)[C@H]2O)cn1 [Compound I-38, N-{[(2R,3S,4R,5R)-3,4-dihydroxy-5-(6-{[(1-methyl-1H-pyrazol-4-yl)methyl]-amino}-9H-purin-9-yl)tetrahydrofuran-2-yl]methyl}sulfamide] | – | ≤ 1000 nM |
| C[C@@H](OS(N)(=O)=O)[C@H]1O[C@@H](n2cnc3c(N[C@H]4CCc5ccccc54)ncnc32)[C@H](O)[C@@H]1O [Compound I-58, (R)-1-((2S,3S,4R,5R)-5-(6-((S)-2,3-dihydro-1H-inden-1-ylamino)-9H-purin-9-yl)-3,4-dihydroxy-tetrahydrofuran-2-yl)ethyl sulfamate] | ≤ 100 nM | ≤ 1000 nM |
| NS(=O)(=O)NC[C@H]1O[C@@H](n2cnc3c(NCc4ccc(F)cc4)ncnc32)[C@H](O)[C@@H]1O [Compound I-126, N-[((2R,3S,4R,5R)-5-{6-[(4-fluorobenzyl)amino]-9H-purin-9-yl}-3,4-dihydroxytetrahydrofuran-2-yl)methyl]sulfamide] | ≤ 100 nM | ≤ 1000 nM |
| COCCc1ncnc2c1ncn2[C@@H]1O[C@H](COS(N)(=O)=O)[C@@H](O)[C@H]1O [Compound I-137, {(2R,3S,4R,5R)-3,4-dihydroxy-5-[6-(2-methoxyethyl)-9H-purin-9-yl]tetrahydrofuran-2-yl}methyl sulfamate] | ≤ 100 nM | ≤ 1000 nM |
